According to patent publication US20080207671A1, “Diagnosis and treatment of diseases arising from defects in the tuberous sclerosis pathway” (The Regents of the University of Michigan, priority 2006, published 2008):
Entries after “also recorded” stand apart in the source; their conditions may differ.

Assays:
EEF8 (TSC2−/−) cells = assay: S6K and 4EBP1 phosphorylation in EEF8 (TSC2-/-) fibroblasts; type: cell-based
S6K and 4EBP1 = settings: cited from earlier work
HEK293 cells = assay: Cell size of HEK293 cells by FACS; type: cell-based, human; settings: 12.5 mM 2-DG or 20 nM rapamycin, 72 hours
Experimental: FIGS. 17a-17b show TSC2 plays roles for cell size control in response to energy starvation. […] HEK293 cells were cultured in the presence of 12.5 mM 2DG, TSC2 RNAi, or 20 nM rapamycin for 72 hours. Cells were harvested and FACS analysis was performed to determine cell size. The X-axis indicates relative cell size. Cell size distribution curve of the control, as indicated by the gray curve, is included in each panel for comparison purposes. […] Experiments are similar to those in panel A.

AMPK [1] = assay: Immunoblot of AMPK T172 phosphorylation (AMPK activation); type: cell-based; settings: 25 mM
Experimental: (§1) HEK293 cells were seeded and maintained in Dulbecco's modified Eagle's medium (DMEM) containing 10% fetal bovine serum (FBS). Transfection was performed in serum-free conditions using Lipofectamine reagent (Invitrogen, Carlsbad, Calif.) in accordance with the manufacturer's instructions. In brief, 4 h after transfection, the cells were recovered in DMEM containing 10% FBS for 16 h and then starved for 16-24 h. Cells were then lysed in lysis buffer (10 mM Tris-HCl at pH 7.5, 100 mM sodium chloride, 1% NP-40, 1% Triton X-100, 50 mM sodium fluoride, 2 mM EDTA, 1 mM phenyl methylsulphonyl fluoride, 10 μg ml^−1 leupeptin and 10 μg ml^−1 aprotinine) and immunoprecipitated with the indicated antibodies and protein G-Sepharose beads. Immunocomplexes were analyzed by SDS-polyacrylamide gel electrophoresis (PAGE).

[2] = test system: phosphorylation of S6K, S6, 4EBP1 and mTOR; assay: Immunoblot of S6K, S6, 4EBP1 and mTOR phosphorylation in HEK293 cells under energy depletion; type: cell-based, human
Experimental: as §1

Akt phosphorylation = assay: Immunoblot of Akt phosphorylation in HEK293 cells; type: cell-based, human; settings: 25 mM 2-DG
Experimental: as §1

EEF4 (TSC2+/+) cells = assay: S6K and 4EBP1 phosphorylation in EEF4 (TSC2+/+) fibroblasts; type: cell-based
intracellular ATP levels = assay: Intracellular ATP levels and AMP/ATP ratio; type: cell-based; settings: 25 mM
[3] = test system: eukaryotic elongation factor 2 (eEF2); settings: Horman et al.; cited from earlier work
[4] = test system: AMPK and TSC2 interaction; assay: Co-immunoprecipitation of endogenous AMPK and TSC2; type: cell-based, human; settings: HEK293
Experimental: as §1

AMPK [5] = settings: Corton et al.; cited from earlier work
[6] = test system: acetyl CoA carboxylase (ACC) and eukaryote elongation factor 2 (eEF2); assay: Phosphorylation of the AMPK substrates ACC and eEF2; type: cell-based
TSC2 = assay: TSC2/TSC1 phosphorylation in transfected HEK293 cells (mobility shift, 32P labelling, two-dimensional phosphopeptide mapping); type: cell-based, human
Experimental: as §1
HEK293 cells were cotransfected with HA-tagged TSC2, Myc-tagged TSC1 and the indicated plasmids. Cells were phosphate- and serum-starved for 4 h before incubation with 0.25 mCi ml^−1 32P-orthophosphate (ICN) for 4 h.
Cells were washed once with ice-cold PBS and lysed. HA-tagged TSC2 was immunoprecipitated, resolved by SDS-PAGE and transferred to a PVDF membrane. Phosphorylated TSC2 was visualized by autoradiography and phosphopeptide mapping was then performed. In brief, the phosphorylated TSC2 bands were excised, fixed in methanol and incubated in 500 μl of 0.5% polyvinylpyrrolidone-40 dissolved in 100 mM acetic acid for 30 min at 37° C. The sample were then digested with 20 μg of TPCK-treated trypsin (Sigma) at 37° C. in 75 mM ammonium bicarbonate buffer at pH 8.0 containing 5% acetonitrile. After digestion, samples were dried under vacuum and suspended in 10 μl of water. Samples were spotted onto a cellulose plate and first dimensional electrophoresis was performed using 1% ammonium bicarbonate buffer at pH 8.9. The plates were separated by chromatography in the second dimension in chromatography buffer (n-butanol:pyridine:acetic acid:water; 20:24:6:30). The plates were dried and phosphopeptides were visualized by autoradiography.

O=CC[C@@H](O)[C@H](O)[C@H](O)CO [2-DG, 2-deoxy-glucose]
S6K and 4EBP1 phosphorylation (EEF8 (TSC2−/−) cells; EEF8, TSC2 T1227A/S1345A mutant expressing cells): less responsive to 2-DG treatment
S6K and 4EBP1 phosphorylation (EEF8 (TSC2−/−) cells; EEF8, vector infected cells): caused little decrease
S6K and 4EBP1 phosphorylation (EEF8 (TSC2−/−) cells; EEF8, wild type TSC2 expressing cells): significantly decreased
S6K and 4EBP1 phosphorylation (S6K and 4EBP1; 20 to 100 mM, Dennis et al., 2001): inhibition of S6K and 4EBP1 phosphorylation
S6K activity (S6K and 4EBP1; Kimura et al., Krause et al.): inhibit S6K activity
cell size (HEK293 cells): significantly decreased cell size; also recorded: decreases cell size
cell size (HEK293 cells; listed as 2DG): decreases cell size
T172 phosphorylation in AMPK (AMPK [1]): dramatic increase of T172 phosphorylation; also recorded: induces phosphorylation of AMPK
AMPK activation and S6K dephosphorylation as a function of treatment time (AMPK [1]; time course): rapid AMPK activation and concomitant dephosphorylation of S6K
phosphorylation of S6K on T389 ([2]; 25 mM): effectively inhibited; also recorded: dephosphorylation
phosphorylation of S6 and 4EBP1 ([2]; 25 mM): dephosphorylation
phosphorylation of mTOR S2448 ([2]; 25 mM): inhibited; also recorded: dephosphorylation
S6K phosphorylation in TSC2 RNAi knockdown cells ([2]; HEK293, TSC2 RNAi): blocked in TSC2 knockdown cells, but not in the control cells; also recorded: knockdown of TSC2 by RNA interference blocks the 2-DG response
phosphorylation of S6K and 4EBP1 ([2]; depletion of cellular ATP): caused a dephosphorylation of S6K and 4EBP1
Akt phosphorylation (Akt phosphorylation): had little effect
4EBP1 phosphorylation (EEF4 (TSC2+/+) cells): inhibition of phosphorylation of 4EBP1
AMP/ATP ratio (intracellular ATP levels): increase; also recorded: increases the AMP/ATP ratio
ATP levels (intracellular ATP levels): statistically significant reduction; also recorded: decreases intracellular ATP levels
phosphorylation of eEF2 [3]: increase phosphorylation
interaction between endogenous AMPK and TSC2 (co-immunoprecipitation) [4]: interact preferentially with AMPK following 2-DG stimulation; also recorded: enhanced; also recorded: enhances the interaction between TSC2 and AMPK; also recorded: stimulates the interaction
AMPK activation (AMPK [5]): activate AMPK
phosphorylation of ACC and eEF2 [6]: 2-DG-induced phosphorylation of ACC and eEF2
mobility of TSC1 (TSC2): did not alter the mobility of TSC1
mobility shift of TSC2 (TSC2; 2-DG treatment): mobility shift is due to phosphorylation
TSC2 phosphorylation (in vivo labeling, two dimensional phosphopeptide mapping) (TSC2; 25 and 40 mM): enhanced phosphorylation of several peptides; also recorded: induce TSC2 phosphorylation on multiple spots in vivo
